Measured values from patent US12435057B2, “Triazole carboxylic acids as LPA antagonists” (BRISTOL-MYERS SQUIBB COMPANY, priority 2019, dated 2025).

Molecular target: T1, human LPA1 (Homo sapiens, UniProt Q92633)
T1 construct: expressed in transfected cells; host or cells: Chinese hamster ovary (CHO) cells
Assay: LPA1 functional antagonist assay (calcium flux)
Assay type: cell-based
Details: CHO cells overexpressing human LPA1; inhibition of calcium flux induced by 10 nM LPA; read-out: hLPA1 IC50
Experimental: The effectiveness of compounds of the present invention as LPA1 inhibitors can be determined in an LPA1 functional antagonist assay as follows: • Chinese hamster ovary cells overexpressing human LPA1 were plated overnight (15,000 cells/well) in poly-D-lysine coated 384-well microplates (Greiner bio-one, Cat #781946) in DMEM/F12 medium (Gibco, Cat #11039). Following overnight culture, cells were loaded with calcium indicator dye (AAT Bioquest Inc, Cat #34601) for 30 minutes at 37° C. The cells were then equilibrated to room temperature for 30 minutes before the assay. Test compounds solubilized in DMSO were transferred to 384 well non-binding surface plates (Corning, Cat #3575) using the Labcyte Echo acoustic dispense and diluted with assay buffer [[…] with calcium/magnesium (Gibco Cat #14025-092), 20 mM HEPES (Gibco Cat #15630-080) and 0.1% fatty acid free BSA (Sigma Cat #A9205)] to a final concentration of 0.5% DMSO. Diluted compounds were added to the cells by FDSS6000 (Hamamatsu) at final concentrations ranging from 0.08 nM to 5 μM. and were then incubated for 20 min at room temperature at which time LPA (Avanti Polar Lipids Cat #857130C) was added at final concentrations of 10 nM to stimulate the cells. The compound IC50 value was defined as the concentration of test compound which inhibited 50% of the calcium flux induced by LPA alone. IC50 values were determined by fitting data to a 4-parameter logistic equation (GraphPad Prism, San Diego CA). b. In Vivo Assays LPA Challenge with Plasma Histamine Evaluation.

T1 sequence (Q92633 whole entry): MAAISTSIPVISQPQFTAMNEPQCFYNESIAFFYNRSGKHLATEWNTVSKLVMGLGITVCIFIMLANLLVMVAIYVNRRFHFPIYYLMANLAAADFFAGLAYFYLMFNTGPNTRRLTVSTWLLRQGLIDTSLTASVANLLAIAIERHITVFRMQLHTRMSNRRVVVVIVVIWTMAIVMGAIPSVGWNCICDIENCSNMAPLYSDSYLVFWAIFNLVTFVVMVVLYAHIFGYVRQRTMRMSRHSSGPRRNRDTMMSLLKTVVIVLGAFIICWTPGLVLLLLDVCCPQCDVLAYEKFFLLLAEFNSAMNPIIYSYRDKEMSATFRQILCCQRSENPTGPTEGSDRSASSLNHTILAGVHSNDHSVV

## Cc1nc(-c2nnn(C)c2COC(=O)NCc2ccccc2)ccc1O[C@@H]1CC[C@H]2C(C(=O)O)[C@@H]12 (stereo partly shown) [Example 63]
  IC50: 264 nM

## CCCN(C)C(=O)OCc1c(-c2ccc(O[C@@H]3CC[C@H]4C(C(=O)O)[C@@H]34)cn2)nnn1C (mixture of isomers) [Example 69]
  IC50: 453 nM

## Cc1nc(-c2nnn(C)c2CNc2noc(CCC3CCC3)n2)ccc1O[C@@H]1CCO[C@@H](C(=O)O)C1 (racemic) [Example 33, (±)-trans-4-((6-(5-(((5-(2-cyclobutylethyl)-1,2,4-oxadiazol-3-yl)amino)methyl)-1-methyl-1H-1,2,3-triazol-4-yl)-2-methylpyridin-3-yl)oxy)tetrahydro-2H-pyran-2-carboxylic Acid]
  IC50: 263 nM

## CCCOc1ccnc(NCc2c(-c3ccc(O[C@@H]4CC[C@H]5C(C(=O)O)[C@@H]45)c(C)n3)nnn2C)n1 (stereo partly shown) [Example 57]
  IC50: 35 nM

## Cc1nc(-c2nnn(C)c2CNC(=O)OC2CCCC2)ccc1O[C@@H]1CCC2C(C(=O)O)C21 (stereo partly shown) [Example 55]
  IC50: 83 nM

## Cc1nc(-c2nnn(C)c2COC(=O)N(C)CC2CCCC2)ccc1O[C@@H]1COC[C@@H](C(=O)O)C1 [Example 22A]
  IC50: 160 nM

## CN(CC1CCC1)C(=O)OCc1c(-c2ccc(OC3CC4C(C3)C4C(=O)O)cn2)nnn1C (stereo not shown) [Example 66]
  IC50: 322 nM

## Cc1nc(-c2nnn(C)c2COC(=O)N(C)CC2CCC2)ccc1O[C@@H]1C[C@H](C(=O)O)C[C@@H]2C[C@@H]21 [Example 73]
  IC50: 60 nM

## CC(C)CN(C)C(=O)OCc1c(-c2ccc(O[C@@H]3CC[C@H]4C(C(=O)O)[C@@H]34)cn2)nnn1C (mixture of isomers) [Example 68, (±)-(1S,2R,5R,6R)-2-((6-(5-(((isobutyl(methyl)carbamoyl)oxy)methyl)-1-methyl-1H-1,2,3-triazol-4-yl)pyridin-3-yl)oxy)bicyclo[3.1.0]hexane-6-carboxylic Acid]
  IC50: 239 nM

## Cc1nc(-c2nnn(C)c2CNC(=O)OCC2CCC2)ccc1O[C@@H]1CCC2C(C(=O)O)C21 (mixture of isomers) [Example 47, (±)-(2R)-2-((6-(5-((((cyclobutylmethoxy)carbonyl)amino)methyl)-1-methyl-1H-1,2,3-triazol-4-yl)-2-methylpyridin-3-yl)oxy)bicyclo[3.1.0]hexane-6-carboxylic Acid]
  IC50: 191 nM

## CCCCOC(=O)NCc1c(-c2ccc(O[C@@H]3CCC4C(C(=O)O)C43)c(C)n2)nnn1C (stereo partly shown) [Example 56]
  IC50: 155 nM

## Cc1nc(-c2nnn(C)c2CNc2nccc(-c3ccccn3)n2)ccc1OC1CCC2C(C(=O)O)C12 (mixture of isomers) [Example 48, (±)-(2R)-2-((2-Methyl-6-(1-methyl-54(4-(pyridin-2-yl)pyrimidin-2-yl)amino)methyl)-1H-1,2,3-triazol-4-yl)pyridin-3-yl)oxy)bicyclo[3.1.0]hexane-6-carboxylic Acid]
  IC50: 159 nM

## Cc1nc(-c2nnn(C)c2Cn2ncc(CC3CCCC3)n2)ccc1O[C@H]1COC[C@H](C(=O)O)C1 [Example 27]
  IC50: 110 nM

## CCCN(C)C(=O)OCc1c(-c2ccc(O[C@@H]3CC[C@H]4C(C(=O)O)[C@@H]34)c(C)n2)nnn1C (mixture of isomers) [Example 51, (±)-(1S,2R,5R,6R)-2-((2-methyl-6-(1-methyl-5-(((methyl(propyl)carbamoyl)oxy)methyl)-1H-1,2,3-triazol-4-yl)pyridin-3-yl)oxy)bicyclo[3.1.0]hexane-6-carboxylic Acid]
  IC50: 724 nM

## CN(C(=O)OCc1c(-c2ccc(OC3CCCC4C(C(=O)O)C34)cn2)nnn1C)C1CCCC1 (racemic) [Example 74, (±)-2-((6-(5-(((Cyclopentyl(methyl)carbamoyl)oxy)methyl)-1-methyl-1H-1,2,3-triazol-4-yl)pyridin-3-yl)oxy)bicyclo[4.1.0]heptane-7-carboxylic Acid]
  IC50: 60 nM

## Cc1nc(-c2nnn(C)c2COC(=O)N(C)CC2CCC2)ccc1O[C@H]1CCC[C@]2(C(=O)O)C[C@H]12 (single isomer, unassigned) [Example 12]
  IC50: 278 nM
